Source: ChEMBL document CHEMBL5532657, “Serendipitous discovery of Class I HDAC inhibitors from rational design of molecular glue degraders targeting HDAC” (Eur J Med Chem, 2024)
Calls of active or inactive are those of the source. The rule behind the calls is not given here.

What was measured:
Histone deacetylase 1 [1] = target: T1, Histone deacetylase 1 (Homo sapiens, UniProt Q13547); assay: Induction of HDAC1 degradation in human RS4-11 cells at 0.5 to 10 uM incubated for 12 hrs by Western blotting analysis; format: cell-based; details: dose 0.5-10 µM
T1 sequence (Q13547 whole entry): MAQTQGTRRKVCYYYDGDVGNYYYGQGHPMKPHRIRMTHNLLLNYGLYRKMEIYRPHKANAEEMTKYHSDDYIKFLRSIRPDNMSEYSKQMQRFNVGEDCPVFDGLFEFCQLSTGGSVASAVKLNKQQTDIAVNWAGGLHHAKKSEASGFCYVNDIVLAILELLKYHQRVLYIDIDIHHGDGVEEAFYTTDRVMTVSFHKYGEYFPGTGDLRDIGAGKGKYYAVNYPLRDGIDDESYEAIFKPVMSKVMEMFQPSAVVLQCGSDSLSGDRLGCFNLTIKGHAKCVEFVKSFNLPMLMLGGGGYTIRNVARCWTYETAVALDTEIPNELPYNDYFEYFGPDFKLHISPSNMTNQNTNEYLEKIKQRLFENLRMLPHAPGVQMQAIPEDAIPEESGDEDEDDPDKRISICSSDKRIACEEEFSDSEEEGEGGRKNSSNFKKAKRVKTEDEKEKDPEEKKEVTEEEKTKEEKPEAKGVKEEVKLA

RS4-11 [2] = assay: Induction of apoptosis in human RS4-11 cells assessed as cleavage of caspase-3 at 1 to 10 uM; format: functional, cell-based; details: dose 1-10 µM
RS4-11 [3] = assay: Induction of apoptosis in human RS4-11 cells assessed as cleaved caspase-9 release at 1 to 10 uM; format: functional, cell-based; details: dose 1-10 µM
Histone deacetylase 11 = target: T2, Histone deacetylase 11 (Homo sapiens, UniProt Q96DB2); assay: Inhibition of HDAC11 in human HeLa cells nuclear extract using BocLys(acetyl)-AMC as substrate incubated for 1 hr by fluorescence plate reader analysis; format: subcellular, Nucleus
T2 sequence (Q96DB2 whole entry): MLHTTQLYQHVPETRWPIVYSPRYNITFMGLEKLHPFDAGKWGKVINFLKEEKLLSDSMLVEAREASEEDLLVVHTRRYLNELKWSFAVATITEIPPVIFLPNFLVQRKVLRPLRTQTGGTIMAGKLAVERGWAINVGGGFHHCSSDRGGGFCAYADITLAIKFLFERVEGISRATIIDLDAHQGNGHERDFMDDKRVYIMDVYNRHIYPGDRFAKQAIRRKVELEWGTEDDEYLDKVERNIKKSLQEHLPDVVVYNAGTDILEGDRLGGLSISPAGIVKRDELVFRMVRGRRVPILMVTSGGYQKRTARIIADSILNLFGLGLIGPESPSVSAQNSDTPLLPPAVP

K562 [4] = assay: Antiproliferative activity against human K562 cells assessed as cell growth inhibition incubated for 48 hrs by CCK-8 assay; format: functional, cell-based; details: K562, 48 h
RS4-11 [5] = assay: Induction of apoptosis in human RS4-11 cells after 48 hrs by Annexin V-FITC/PI staining based flow cytometry analysis; format: functional, cell-based; details: dose 1-10 µM
Histone deacetylase 1 [6] = target: T1, Histone deacetylase 1; assay: Inhibition of HDAC1 (unknown origin) using BocLys(acetyl)-AMC as substrate incubated for 1 hr by fluorescence plate reader analysis
Histone deacetylase 9 = Histone deacetylase 9 (Homo sapiens, UniProt Q9UKV0); assay: Inhibition of HDAC9 in human HeLa cells nuclear extract using BocLys(acetyl)-AMC as substrate incubated for 1 hr by fluorescence plate reader analysis; format: subcellular, Nucleus
Sequence of Histone deacetylase 9 (Q9UKV0 whole entry): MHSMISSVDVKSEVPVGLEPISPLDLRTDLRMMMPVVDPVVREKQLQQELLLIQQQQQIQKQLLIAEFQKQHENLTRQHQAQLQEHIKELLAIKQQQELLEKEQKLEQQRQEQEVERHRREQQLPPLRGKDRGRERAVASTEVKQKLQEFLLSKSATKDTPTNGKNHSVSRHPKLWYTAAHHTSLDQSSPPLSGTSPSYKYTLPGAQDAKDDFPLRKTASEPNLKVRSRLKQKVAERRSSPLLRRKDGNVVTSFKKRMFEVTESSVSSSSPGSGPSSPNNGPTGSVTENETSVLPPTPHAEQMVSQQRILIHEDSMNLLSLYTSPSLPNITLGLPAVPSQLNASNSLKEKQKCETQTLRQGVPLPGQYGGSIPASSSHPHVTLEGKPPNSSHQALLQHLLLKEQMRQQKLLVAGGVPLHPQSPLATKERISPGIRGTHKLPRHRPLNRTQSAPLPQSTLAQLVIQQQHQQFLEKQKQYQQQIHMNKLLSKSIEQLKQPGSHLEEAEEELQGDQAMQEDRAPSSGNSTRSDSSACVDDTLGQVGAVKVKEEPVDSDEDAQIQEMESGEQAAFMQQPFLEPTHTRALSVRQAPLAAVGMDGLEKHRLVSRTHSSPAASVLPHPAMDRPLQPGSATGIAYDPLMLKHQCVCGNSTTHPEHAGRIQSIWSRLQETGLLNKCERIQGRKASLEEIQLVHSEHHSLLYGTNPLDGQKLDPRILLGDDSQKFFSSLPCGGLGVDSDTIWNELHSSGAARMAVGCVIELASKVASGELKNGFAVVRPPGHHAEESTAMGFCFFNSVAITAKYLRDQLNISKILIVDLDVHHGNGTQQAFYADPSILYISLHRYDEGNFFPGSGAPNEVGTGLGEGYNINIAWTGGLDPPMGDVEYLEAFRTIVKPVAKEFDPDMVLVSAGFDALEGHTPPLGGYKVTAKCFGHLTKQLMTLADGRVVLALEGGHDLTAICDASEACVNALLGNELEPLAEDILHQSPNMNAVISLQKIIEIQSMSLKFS

RPMI-8226 = assay: Antiproliferative activity against human RPMI-8226 cells assessed as cell growth inhibition at 5 uM incubated for 48 hrs by CCK-8 assay; format: functional, cell-based
RS4-11 [7] = assay: Antiproliferative activity against human RS4-11 cells assessed as cell growth inhibition at 5 uM incubated for 48 hrs by CCK-8 assay; format: functional, cell-based
[8] = target: T3, Histone deacetylase (Homo sapiens) (UniProt Q13547+O15379+Q9UBN7+Q92769+Q9UQL6+Q8WUI4+Q9BY41+Q96DB2+P56524+Q9UKV0+Q969S8); assay: Inhibition of HDAC in human RS4-11 cells assessed as upregulation of histone H3 acetylation at 1 to 10 uM by Western blot assay; format: cell-based; details: dose 1-10 µM
U-266 [9] = assay: Antiproliferative activity against human U-266 cells assessed as cell growth inhibition incubated for 48 hrs by CCK-8 assay; format: functional, cell-based; details: U-266, 48 h
RS4-11 [10] = assay: Induction of apoptosis in human RS4-11 cells assessed as downregulation of Bcl-2 level; format: functional, cell-based; details: dose 1-10 µM
K562 [11] = assay: Antiproliferative activity against human K562 cells assessed as cell growth inhibition at 5 uM incubated for 48 hrs by CCK-8 assay; format: functional, cell-based
Histone deacetylase 1 [12] = target: T1, Histone deacetylase 1; assay: Binding affinity to HDAC1 (unknown origin)
HCT-116 = assay: Antiproliferative activity against human HCT-116 cells assessed as cell growth inhibition at 5 uM incubated for 48 hrs by CCK-8 assay; format: functional, cell-based
U-266 [13] = assay: Antiproliferative activity against human U-266 cells assessed as cell growth inhibition at 5 uM incubated for 48 hrs by CCK-8 assay; format: functional, cell-based
Histone deacetylase 2 = Histone deacetylase 2 (Homo sapiens, UniProt Q92769); assay: Inhibition of HDAC2 in human HeLa cells nuclear extract using BocLys(acetyl)-AMC as substrate incubated for 1 hr by fluorescence plate reader analysis; format: subcellular, Nucleus
Sequence of Histone deacetylase 2 (Q92769 whole entry): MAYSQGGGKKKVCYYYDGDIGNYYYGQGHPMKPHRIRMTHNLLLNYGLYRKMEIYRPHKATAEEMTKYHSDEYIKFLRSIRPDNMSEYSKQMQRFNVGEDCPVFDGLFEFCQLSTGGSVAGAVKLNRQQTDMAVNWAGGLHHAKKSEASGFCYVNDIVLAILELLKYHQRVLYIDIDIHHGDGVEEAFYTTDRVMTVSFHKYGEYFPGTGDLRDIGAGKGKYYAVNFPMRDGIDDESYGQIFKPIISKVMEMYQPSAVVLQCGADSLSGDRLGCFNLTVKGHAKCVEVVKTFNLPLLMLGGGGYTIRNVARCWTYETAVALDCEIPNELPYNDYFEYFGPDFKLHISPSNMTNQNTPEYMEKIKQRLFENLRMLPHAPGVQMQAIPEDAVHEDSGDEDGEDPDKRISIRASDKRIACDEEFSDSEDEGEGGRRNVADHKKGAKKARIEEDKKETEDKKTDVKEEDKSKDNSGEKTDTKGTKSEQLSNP

Histone deacetylase 4 = Histone deacetylase 4 (Homo sapiens, UniProt P56524); assay: Inhibition of HDAC4 in human HeLa cells nuclear extract using BocLys(acetyl)-AMC as substrate incubated for 1 hr by fluorescence plate reader analysis; format: subcellular, Nucleus
Sequence of Histone deacetylase 4 (P56524 whole entry): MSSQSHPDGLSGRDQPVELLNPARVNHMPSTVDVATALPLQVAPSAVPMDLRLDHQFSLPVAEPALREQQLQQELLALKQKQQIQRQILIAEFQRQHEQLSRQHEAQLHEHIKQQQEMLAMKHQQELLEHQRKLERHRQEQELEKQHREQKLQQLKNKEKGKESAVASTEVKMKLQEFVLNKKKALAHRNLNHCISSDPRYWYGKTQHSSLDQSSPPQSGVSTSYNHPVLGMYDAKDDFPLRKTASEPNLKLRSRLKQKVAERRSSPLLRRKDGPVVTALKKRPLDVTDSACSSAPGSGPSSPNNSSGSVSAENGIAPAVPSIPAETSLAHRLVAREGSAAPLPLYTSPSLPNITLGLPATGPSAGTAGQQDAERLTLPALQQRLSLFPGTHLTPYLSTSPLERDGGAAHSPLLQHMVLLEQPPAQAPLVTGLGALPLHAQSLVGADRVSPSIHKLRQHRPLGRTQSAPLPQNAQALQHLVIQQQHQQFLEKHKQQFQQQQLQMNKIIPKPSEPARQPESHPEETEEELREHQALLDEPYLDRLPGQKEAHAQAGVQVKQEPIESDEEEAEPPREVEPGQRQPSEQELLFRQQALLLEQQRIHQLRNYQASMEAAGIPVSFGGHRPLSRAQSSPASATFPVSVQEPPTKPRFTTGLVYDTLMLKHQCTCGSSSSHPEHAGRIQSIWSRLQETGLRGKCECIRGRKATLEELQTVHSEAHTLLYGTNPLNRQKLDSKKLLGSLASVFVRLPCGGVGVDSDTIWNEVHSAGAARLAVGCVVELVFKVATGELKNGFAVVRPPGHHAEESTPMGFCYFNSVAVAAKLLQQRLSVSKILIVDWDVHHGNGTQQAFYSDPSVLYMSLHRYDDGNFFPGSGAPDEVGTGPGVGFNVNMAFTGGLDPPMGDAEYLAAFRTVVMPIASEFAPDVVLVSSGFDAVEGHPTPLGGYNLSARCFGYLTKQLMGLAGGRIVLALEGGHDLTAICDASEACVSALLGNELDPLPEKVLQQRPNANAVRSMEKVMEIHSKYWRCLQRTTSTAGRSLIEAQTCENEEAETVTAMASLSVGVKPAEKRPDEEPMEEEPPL

[14] = target: T3, Histone deacetylase (Homo sapiens); assay: Inhibition of HDAC in human RS4-11 cells assessed as upregulation of histone H4 acetylation at 1 to 10 uM by Western blot assay; format: cell-based; details: dose 1-10 µM
[15] = target: Zinc finger protein Aiolos (Homo sapiens) (UniProt Q9UKT9); assay: Induction of IKZF3 degradation in human RS4-11 cells at 1 to 10 uM by Western blotting analysis; format: cell-based; details: dose 1-10 µM
Sequence of Zinc finger protein Aiolos (Homo sapiens) (Q9UKT9 whole entry): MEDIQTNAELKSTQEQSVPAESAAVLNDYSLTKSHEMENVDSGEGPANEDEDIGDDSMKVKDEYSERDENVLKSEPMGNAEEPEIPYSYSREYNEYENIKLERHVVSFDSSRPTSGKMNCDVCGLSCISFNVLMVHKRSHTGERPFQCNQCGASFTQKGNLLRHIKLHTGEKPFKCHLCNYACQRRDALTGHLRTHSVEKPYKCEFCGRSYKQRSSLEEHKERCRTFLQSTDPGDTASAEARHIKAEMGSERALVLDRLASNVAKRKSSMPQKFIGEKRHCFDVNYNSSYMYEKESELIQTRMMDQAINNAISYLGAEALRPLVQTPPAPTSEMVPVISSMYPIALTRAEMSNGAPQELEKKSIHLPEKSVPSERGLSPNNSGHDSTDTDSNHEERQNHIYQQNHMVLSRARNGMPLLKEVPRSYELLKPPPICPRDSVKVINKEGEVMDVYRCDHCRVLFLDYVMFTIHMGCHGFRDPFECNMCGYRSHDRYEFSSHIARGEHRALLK

RS4-11 [16] = assay: Antiproliferative activity against human RS4-11 cells assessed as cell growth inhibition incubated for 48 hrs by CCK-8 assay; format: functional, cell-based; details: RS4-11, 48 h

| SMILES | Activity (Histone deacetylase 1 [1]) | Activity (RS4-11 [2]) | Activity (RS4-11 [3]) | IC50 (Histone deacetylase 11) | IC50 (K562 [4]) | Activity (RS4-11 [5]) | IC50 (Histone deacetylase 1 [6]) | IC50 (Histone deacetylase 9) | Activity (RPMI-8226) | Activity (RS4-11 [7]) | Activity [8] | IC50 (U-266 [9]) | Activity (RS4-11 [10]) | Activity (K562 [11]) | Kd (Histone deacetylase 1 [12]) | Activity (HCT-116) | Activity (U-266 [13]) | IC50 (Histone deacetylase 2) | IC50 (Histone deacetylase 4) | Activity [14] | also measured |
| --- | --- | --- | --- | --- | --- | --- | --- | --- | --- | --- | --- | --- | --- | --- | --- | --- | --- | --- | --- | --- | --- |
| Nc1cc(F)ccc1NC(=O)c1ccc(CNc2cccc3c2C(=O)N(C2CCC(=O)NC2=O)C3=O)cc1 (centres undefined) | inactive | Active | Active | > 2000 nM | 5350 nM | Dose-Dependent Effect | 457 nM | > 2000 nM | Active | Active | Active | 2940 nM | Dose-Dependent Effect | Active | 16700 nM | inactive | Active | 434 nM | > 2000 nM | Active | Activity [15]: Active; IC50 (RS4-11 [16]): 2110 nM |
| Nc1ccccc1NC(=O)c1ccc(CNc2cccc3c2C(=O)N(C2CCC(=O)NC2=O)C3=O)cc1 (centres undefined) | inactive | Active | Active | > 2000 nM | 5540 nM | Dose-Dependent Effect | 551 nM | > 2000 nM | Active | Active | Active | 4890 nM | Dose-Dependent Effect | Active | 41300 nM | inactive | Active | 379 nM | > 2000 nM | Active | Activity [15]: Active; IC50 (RS4-11 [16]): 1570 nM |
